# From ChEMBL document CHEMBL4715758, “Hit-to-Lead Optimization of a Novel Class of Potent, Broad-Spectrum Trypanosomacides” (J Med Chem, 2016)
# Calls of active or inactive are those of the source. No cut-off for these calls is given here.
# How the values were obtained:
# [1] = Protein binding in human plasma by HPLC-MS analysis; assay type: ADME, cell-free; details: read-out: PPB (converted)
# Trypanosoma cruzi [2] = assay: Inhibition of Trypanosoma cruzi Tulahuen C4 CYP51 expressed in Escherichia coli JM109 using BOMCC as substrate in presence of NADPH by fluorescence assay
# [3] = test system: Trypanosoma brucei brucei; assay: Antitrypanosomal activity against Trypanosoma brucei brucei Lister 427 strain blood stream forms incubated for 48 hrs by resazurin dye based fluorescence assay; assay type: functional, organism-based; details: Lister 427, 48 h
# Trypanosoma cruzi [4] = assay: Antitrypanosomal activity against Trypanosoma cruzi infected in vero cells assessed as reduction in parasite growth inhibition incubated for 96 hrs by time kill assay relative to nifurtimox; assay type: functional
# Vero = assay: Cytotoxicity against African green monkey Vero cells assessed as reduction in cell viability; assay type: cell-based; details: chlorocebus sabaeus
# Trypanosoma cruzi [5] = assay: Antitrypanosomal activity against Trypanosoma cruzi infected in vero cells assessed as minimum concentration required for parasite growth inhibition incubated from 24 to 96 hrs by time kill assay; assay type: functional; details: time 24-96 hrs, read-out: MEC
# [6] = Kinetic solubility of compound at pH 6.5 phosphate buffer by nephelometry; assay type: physicochemical; details: read-out: Kinetic_solubility
# Trypanosoma cruzi [7] = assay: Antitrypanosomal activity against Trypanosoma cruzi infected in vero cells assessed as parasite growth inhibition incubated from 24 to 96 hrs by time kill assay; assay type: functional, organism-based
# [8] = Selectivity index, ratio of IC50 for cytotoxicity against human HEK293 cells assessed as reduction in cell viability to IC50 for antitrypanosomal activity against Trypanosoma brucei brucei Lister 427 blood stream form; assay type: toxicity, cell-based; details: read-out: Ratio IC50
# [9] = Kinetic solubility of compound at pH 2 by nephelometry; assay type: physicochemical; details: buffer, read-out: Kinetic_solubility
# [10] = Partition coefficient, log D of compound at pH 7.4 by HPLC; assay type: physicochemical; details: octanol/water
# [11] = Drug metabolism in human liver microsomes assessed as oxidative dealkylation by measuring 2-(2-phenylthiazol-4-yl)-ethanol formation in presence of NADPH measured after 60 mins by LC-MS analysis; assay type: ADME, Microsome; details: 1 h
# [12] = Drug metabolism in human liver microsomes assessed as secondary hydroxylation by measuring N-(2-(4-(2,4-difluorophenyl)thiazol-2-yl)ethyl)piperidine-1-carboxamide metabolite formation in presence of NADPH measured after 60 mins by LC-MS analysis; assay type: ADME, Microsome; details: 1 h
# [13] = Drug metabolism in human liver microsomes assessed as 2-(2-phenylthiazol-4-yl)-ethanol metabolite formation in presence of NADPH and UDPGA measured after 60 mins by LC-MS analysis; assay type: ADME, Microsome; details: 1 h
# [14] = Metabolic stability in human liver microsomes assessed as degradation half-life measured after 60 mins in presence of NADPH generating system by LC-MS analysis; assay type: ADME, Microsome; details: read-out: T50
# [15] = Intrinsic clearance in human liver microsomes assessed per mg protein measured after 60 mins in presence of NADPH generating system by LC-MS analysis; assay type: ADME, Microsome; details: read-out: CLH
# L6 = assay: Cytotoxicity against rat L6 cells assessed as reduction in cell viability measured after 72 hrs by alamar blue dye based fluorimetry analysis; details: L6, 72 h
# Trypanosoma cruzi [16] = assay: Antitrypanosomal activity against Trypanosoma cruzi Tulahuen C4 strain amastigotes infected in rat L6 cells measured after 96 hrs by inverted microscopy analysis; assay type: functional, organism-based; details: Tulahuen C4, L6, 96 h
# Leishmania donovani = assay: Antileishmanial activity against Leishmania donovani MHOM/ET/67/L82 amastigotes measured after 72 hrs by alamar blue dye based fluorimetry analysis; assay type: functional, organism-based; details: MHOM/ET/67/L82, 72 h
# Plasmodium falciparum = assay: Antiplasmodial activity against chloroquine and pyrimethamine resistant erythrocytic stage of Plasmodium falciparum K1 strain assessed as reduction in [3H]hypoxanthine incorporation measured after 48 hrs by liquid scintillation counting method; assay type: functional, organism-based
# Trypanosoma cruzi [17] = assay: Antitrypanosomal activity against Trypanosoma cruzi Tulahuen strain trypomastigotes infected in rat H9c2 cells incubated for 72 hrs by DRAQ5 DNA dye based imaging analysis; assay type: functional, organism-based; details: H9c2, 72 h
# [18] = Drug metabolism in human liver microsomes assessed as hydroxylation by measuring 3-fluoro-N-(2-(2-(4-hydroxyphenyl)thiazol-4-yl)ethyl)benzamide formation in presence of NADPH measured after 60 mins by LC-MS analysis; assay type: ADME, Microsome; details: 1 h
# [19] = Drug metabolism in human liver microsomes assessed as hydroxylation by measuring 3-fluoro-N-(2-hydroxy-2-(2-phenylthiazol-4-yl)ethyl)benzamide formation in presence of NADPH measured after 60 mins by LC-MS analysis; assay type: ADME, Microsome; details: 1 h
# [20] = Drug metabolism in human liver microsomes assessed as N-(2-(4-(2,4-difluorophenyl)thiazol-2-yl)ethyl)piperidine-1-carboxamide metabolite formation in presence of NADPH and UDPGA measured after 60 mins by LC-MS analysis; assay type: ADME, Microsome; details: 1 h
# [21] = Metabolic stability in human liver microsome assessed as compound degradation measured over 60 mins in absence of cofactor by LC-MS analysis; assay type: ADME; details: liver microsomes, read-out: Drug degradation
# [22] = test system: Trypanosoma brucei rhodesiense; assay: Antitrypanosomal activity against Trypanosoma brucei rhodesiense STIB900 trypomastigotes incubated for 72 hrs by resazurin dye based fluorescence assay; assay type: functional, organism-based; details: STIB900, 72 h
# [23] = Metabolic stability in mouse liver microsomes assessed as degradation half-life measured after 60 mins in presence of NADPH generating system by LC-MS analysis; assay type: ADME, Microsome; details: read-out: T50
# [24] = Selectivity index, ratio of IC50 for cytotoxicity against rat H9c2 cells assessed as reduction in cell viability to IC50 for antitrypanosomal against Trypanosoma cruzi Tulahuen trypomastigotes infected in rat H9c2 cells; assay type: toxicity, cell-based; details: read-out: Ratio IC50
# [25] = Intrinsic clearance in mouse liver microsomes assessed per mg protein measured after 60 mins in presence of NADPH generating system by LC-MS analysis; assay type: ADME, Microsome; details: read-out: CLH
# [26] = Metabolic stability in human liver microsomes assessed as half-life measured after 60 mins in presence of NADPH generating system by LC-MS analysis; assay type: ADME, Microsome
Compound,fraction unbound [1],IC50 [3],solubility kinetic [9],logD [10],half-life [14],microsomal CLint [15],IC50 (Trypanosoma cruzi [17]),selectivity ratio [8],IC50 (L6),IC50 (Trypanosoma cruzi [16]),IC50 (Leishmania donovani),IC50 (Plasmodium falciparum),other results
O=C(NCCc1csc(-c2ccccc2)n1)c1cccc(F)c1,0.04,–,6 µg/mL,3.6,4 min,484 µL/min/mg,500 nM,–,51 µM,200 nM,10 µM,41 µM,Drug metabolism [11]: Metabolite_Detected; Drug metabolism [12]: Metabolite_Detected; Drug metabolism [13]: Metabolite_Detected; inhibition (Trypanosoma cruzi [2]): inactive; Imax (Trypanosoma cruzi [4]): 106%; Activity (Vero): 17 µM; Drug metabolism [18]: Metabolite_Detected; Drug metabolism [19]: Metabolite_Detected; IC50 (Trypanosoma cruzi [7]): 400 nM; Drug metabolism [20]: Metabolite_Detected; metabolised at 1 h [21]: 14%
O=C(NCCc1csc(-c2ccccc2)n1)c1ccccn1,–,300 nM,–,–,–,–,–,139,66 µM,900 nM,12 µM,65 µM,IC50 [22]: 220 nM
CC(C)(C)C(=O)NCCc1csc(-c2cccc(F)c2)n1,–,–,–,–,–,–,–,–,62 µM,2300 nM,46 µM,35 µM,IC50 [22]: 1500 nM

# Second part, led by results:
fraction unbound [1],IC50 [3],solubility kinetic [9],logD [10],half-life [14],microsomal CLint [15],IC50 (Trypanosoma cruzi [17]),Compound,selectivity ratio [8],IC50 (L6),IC50 (Trypanosoma cruzi [16]),IC50 (Leishmania donovani),IC50 (Plasmodium falciparum),other results
0.05,130 nM,6 µg/mL,3.5,–,–,–,Cc1ccoc1C(=O)NCCc1csc(-c2ccccc2)n1,666,–,–,–,–,inhibition (Trypanosoma cruzi [2]): inactive; Imax (Trypanosoma cruzi [4]): 104%; Activity (Vero): 50 µM; minimal effective concentration (Trypanosoma cruzi [5]): 0.6 µM; solubility kinetic [6]: 6 µg/mL; IC50 (Trypanosoma cruzi [7]): 600 nM
–,16 nM,–,–,4 min,439 µL/min/mg,10 nM,O=C(NCCc1csc(-c2ccccc2F)n1)N1CCCCC1,650,–,–,–,–,half-life [23]: < 2 min; selectivity ratio [24]: > 3980; microsomal CLint [25]: > 1600 µL/min/mg
–,–,–,–,–,135 µL/min/mg,130 nM,CC(C)OC(=O)NCCc1csc(-c2ccc(F)cc2F)n1,–,–,–,–,–,half-life [26]: 10 min; selectivity ratio [24]: > 398
0.1,–,50 µg/mL,3.2,7 min,244 µL/min/mg,39 nM,O=C(NCCc1csc(-c2ccccc2)n1)N1CCCCC1,–,–,–,–,–,solubility kinetic [6]: 25 µg/mL
